Measured values: US12577231B2, “Androgen receptor PROTACS” (GlaxoSmithKline Intellectual Property Development Limited, priority 2023, dated 2026)
Changes are numbered by the printed parent chain.

Columns and labels:
Androgen receptor F877L = biological target: T1, Androgen receptor F877L (Homo sapiens, UniProt P10275, F877L); assay: Degradation of overexpressed Androgen Receptor in A549 cells (HiBiT), F877L; type: cell-based; conditions: A549 cells overexpressing AR F877L, cycloheximide, 24 hours
T1 construct: expressed in transfected cells; host or cells: A549, transduced, puromycin selected
T1 sequence (P10275 1-920 F877L): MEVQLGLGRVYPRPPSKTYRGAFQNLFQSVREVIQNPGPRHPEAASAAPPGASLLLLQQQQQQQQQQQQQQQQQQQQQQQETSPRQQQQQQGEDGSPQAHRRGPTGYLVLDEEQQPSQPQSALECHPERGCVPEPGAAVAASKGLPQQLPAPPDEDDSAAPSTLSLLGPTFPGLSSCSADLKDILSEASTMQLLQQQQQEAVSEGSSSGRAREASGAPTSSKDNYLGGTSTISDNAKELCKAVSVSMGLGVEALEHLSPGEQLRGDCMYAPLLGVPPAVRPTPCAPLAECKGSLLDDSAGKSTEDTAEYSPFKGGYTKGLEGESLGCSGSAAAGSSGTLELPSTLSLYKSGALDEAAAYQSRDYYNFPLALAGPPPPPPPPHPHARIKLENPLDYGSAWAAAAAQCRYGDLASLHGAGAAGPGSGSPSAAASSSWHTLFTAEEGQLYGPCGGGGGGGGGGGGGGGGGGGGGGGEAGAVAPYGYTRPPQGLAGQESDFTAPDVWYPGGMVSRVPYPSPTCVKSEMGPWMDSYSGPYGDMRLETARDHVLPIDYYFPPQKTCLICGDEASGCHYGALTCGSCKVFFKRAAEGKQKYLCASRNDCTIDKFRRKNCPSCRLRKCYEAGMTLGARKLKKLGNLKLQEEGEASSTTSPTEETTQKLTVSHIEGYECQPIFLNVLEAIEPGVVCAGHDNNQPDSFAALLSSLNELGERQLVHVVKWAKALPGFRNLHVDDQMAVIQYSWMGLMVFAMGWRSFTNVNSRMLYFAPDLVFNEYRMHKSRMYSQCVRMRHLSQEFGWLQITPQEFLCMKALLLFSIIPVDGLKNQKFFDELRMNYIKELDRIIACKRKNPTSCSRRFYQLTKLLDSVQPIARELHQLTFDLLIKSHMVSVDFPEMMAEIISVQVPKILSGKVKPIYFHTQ
Procedure: (§1) A549 cells were transduced to express wild type androgen receptor and Androgen receptor containing the following mutations (L702H, H875Y W742C W742L F877L, T878A and T878A/H875Y) with HiBiT tags. Transduced cells following puromycin selection were maintained in a humidified incubator (at 37° C. and 5% CO2 in the DMEM medium supplemented with 1% (v/v) Pen/Strep, 1% (v/v) Glutamax and 10% (v/v) FBS. A549 cells expressing each AR construct were detached from plate and counted. Cell suspensions at density 0.2 million per mL were prepared. Cell suspension was supplemented with 100 μg/mL of cycloheximide to block protein synthesis. Cells were preincubated with cycloheximide for 1 hr before seeding. Cells were seeded onto 384-well plate at density of 5,000 in 25 μL per well. A two fold serial dilution of test compounds, starting from 1 μM (row A) in 2-fold serial dilution series across the column using Tecan D300e dispenser. […]
(§2) Nano-Glo HiBiT Lytic reagent was prepared by adding LgBiT protein and Nano-Glo® substrate to lytic buffer pre-equilibrated at room temperature following manufacturer protocol (https://www.promega.co.uk/resources/protocols/technical-manuals/101/nanoglo-luciferase-assay-system-protocol). […] The plates were then centrifuged (100×G, 1 min) and incubated on shaker for 10 mins before taking readings on Pherastar Luminescence microplate reader. […]

[1] = biological target: T2, Androgen receptor T878A/H875Y (Homo sapiens, UniProt P10275, H875Y/T878A); assay: Degradation of overexpressed Androgen Receptor in A549 cells (HiBiT), T878A/H875Y; type: cell-based; conditions: A549 cells overexpressing AR T878A.H875Y, cycloheximide, 24 hours
T2 construct: expressed in transfected cells; host or cells: A549, transduced, puromycin selected
T2 sequence (P10275 1-920 H875Y/T878A): T1 sequence (P10275 1-920 F877L) with H875Y, L877F, T878A
Procedure: as §1, §2

## COc1cc(O[C@H]2C(C)(C)[C@H](NC(=O)c3ccc(N4CCC(CN5CCC(n6ncc7c(N8CCC(=O)NC8=O)nccc76)CC5)CC4)c(F)c3)C2(C)C)ccc1C#N [Example 20, N-((1r,3r)-3-(4-Cyano-3-methoxyphenoxy)-2,2,4,4-tetramethylcyclobutyl)-4-(4-((4-(4-(2,4-dioxotetrahydropyrimidin-1(2H)-yl)-1H-pyrazolo[4,3-c]pyridin-1-yl)piperidin-1-yl)methyl)piperidin-1-yl)-3-fluorobenzamide]
Androgen receptor F877L
  Summary pXC50: 8.84
[1]
  Summary pXC50: 8.57
